Source: patent US9695154B2, “Heteroaryl inhibitors of sumo activating enzyme” (MILLENNIUM PHARMACEUTICALS, INC., priority 2013, dated 2017)

Biological target: T1, recombinant human SAE enzyme (Homo sapiens, UniProt Q9UBT2)
T1 sequence (Q9UBT2 1-640): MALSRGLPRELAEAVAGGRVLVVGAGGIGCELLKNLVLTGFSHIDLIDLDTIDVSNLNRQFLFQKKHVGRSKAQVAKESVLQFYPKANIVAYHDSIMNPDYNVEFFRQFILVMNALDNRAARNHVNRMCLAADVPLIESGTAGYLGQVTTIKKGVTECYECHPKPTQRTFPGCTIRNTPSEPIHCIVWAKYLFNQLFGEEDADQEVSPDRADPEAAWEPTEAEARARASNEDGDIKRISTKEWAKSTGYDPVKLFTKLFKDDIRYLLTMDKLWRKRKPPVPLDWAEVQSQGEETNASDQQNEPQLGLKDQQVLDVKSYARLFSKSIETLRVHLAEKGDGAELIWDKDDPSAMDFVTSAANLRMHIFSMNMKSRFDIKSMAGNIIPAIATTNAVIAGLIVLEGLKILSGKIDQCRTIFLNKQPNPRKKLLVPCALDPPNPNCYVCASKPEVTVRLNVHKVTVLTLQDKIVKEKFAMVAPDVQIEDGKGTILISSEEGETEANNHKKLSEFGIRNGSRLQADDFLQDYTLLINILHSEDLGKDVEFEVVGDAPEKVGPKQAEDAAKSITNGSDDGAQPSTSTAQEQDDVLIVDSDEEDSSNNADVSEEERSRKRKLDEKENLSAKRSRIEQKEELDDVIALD
T1 sequence (Q9UBE0 1-346 partner): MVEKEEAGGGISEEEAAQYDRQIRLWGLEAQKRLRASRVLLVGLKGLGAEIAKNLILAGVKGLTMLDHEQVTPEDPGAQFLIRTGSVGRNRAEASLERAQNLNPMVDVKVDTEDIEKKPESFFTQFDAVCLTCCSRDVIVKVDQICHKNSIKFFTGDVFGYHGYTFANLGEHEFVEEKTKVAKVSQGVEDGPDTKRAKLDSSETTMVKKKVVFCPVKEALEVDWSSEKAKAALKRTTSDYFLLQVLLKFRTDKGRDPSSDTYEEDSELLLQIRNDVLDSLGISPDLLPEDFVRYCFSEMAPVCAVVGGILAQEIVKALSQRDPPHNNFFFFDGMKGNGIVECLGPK
Assay: SAE HTRF Enzyme Assay
Assay type: biochemical
Conditions: for IC50: class symbols A-C; for inhibition at 0.111 µM: compound concentration 0.111 μM, read-out: Percent Inhibition
Summary of the method: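 HTRF signal from Eu-anti-Flag/APC-anti-GST pairs reports Sumo-Flag loaded onto Ubc9-GST by 0.11 nM SAE. Reaction: 0.5 μM ATP, 0.125 μM Sumo-Flag, 0.01 μM Ubc9-GST, 5 mM MgCl2, pH 7.5, 105 min, 24° C. Single-concentration % inhibition or IC50 reported.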

SMILES | IC50 | inhibition at 0.111 µM
NS(=O)(=O)OC[C@H]1C[C@@H](Nc2ncncc2C(=O)c2ccn(Cc3ccc(Cl)o3)c2)[C@@H](F)[C@@H]1O [Compound I-296, [(1R,2R,3R,4R)-4-{[5-({1-[(5-chloro-2-furyl)methyl]-1H-pyrrol-3-yl}carbonyl)pyrimidin-4-yl]amino}-3-fluoro-2-hydroxycyclopentyl]methyl sulfamate] | < 0.01 µM | 100%
Cc1cc(Cn2ccc(C(=O)c3cncnc3N[C@@H]3C[C@H](COS(N)(=O)=O)[C@@H](O)[C@@H]3F)c2)no1 [Compound I-297, [(1R,2R,3R,4R)-3-fluoro-2-hydroxy-4-{[5-({1-[(5-methylisoxazol-3-yl)methyl]-1H-pyrrol-3-yl}carbonyl)pyrimidin-4-yl]amino}cyclopentyl]methyl sulfamate] | < 0.01 µM | 97%
Cc1cccc(Cn2ccc(C(=O)c3cncnc3N[C@@H]3C[C@H](COS(N)(=O)=O)[C@@H](O)C3)n2)n1 [Compound I-298, [(1R,2S,4R)-2-hydroxy-4-{[5-({1-[(6-methylpyridin-2-yl)methyl]-1H-pyrazol-3-yl}carbonyl)pyrimidin-4-yl]amino}cyclopentyl]methyl sulfamate] | < 0.01 µM | 97%
NS(=O)(=O)OC[C@H]1C[C@@H](Nc2ncncc2C(=O)c2ccn(Cc3cncc(Br)c3)c2)C[C@@H]1O [Compound I-299, [(1R,2S,4R)-4-{[5-({1-[(5-Bromopyridin-3-yl)methyl]-1H-pyrrol-3-yl}carbonyl)pyrimidin-4-yl]amino}-2-hydroxycyclopentyl]methyl sulfamate] | < 0.01 µM | 99%
NS(=O)(=O)OC[C@H]1C[C@@H](Nc2ncncc2C(=O)c2ccn(Cc3ccccc3)c2)C[C@@H]1O [Compound I-300, [(1R,2S,4R)-4-({5-[(1-Benzyl-1H-pyrrol-3-yl)carbonyl]pyrimidin-4-yl}amino)-2-hydroxycyclopentyl]methyl sulfamate] | < 0.01 µM | 97%
NS(=O)(=O)OC[C@H]1C[C@@H](Nc2ncncc2C(=O)c2ccn(Cc3ccc(F)c(C4CC4)c3)n2)C[C@@H]1O [Compound I-301, {(1R,2S,4R)-4-[(5-{[1-(3-cyclopropyl-4-fluorobenzyl)-1H-pyrazol-3-yl]carbonyl}pyrimidin-4-yl)amino]-2-hydroxycyclopentyl}methyl sulfamate] | < 0.01 µM | 97%
NS(=O)(=O)OC[C@H]1C[C@@H](Nc2ncncc2C(=O)c2ccn(Cc3cccc(OC(F)F)c3)n2)[C@@H](F)[C@@H]1O [Compound I-303, [(1R,2R,3R,4R)-4-{[5-({1-[3-(difluoromethoxy)benzyl]-1H-pyrazol-3-yl}carbonyl)pyrimidin-4-yl]amino}-3-fluoro-2-hydroxycyclopentyl]methyl sulfamate] | < 0.01 µM | 99%
COCCn1ccc(C(=O)c2cncnc2N[C@@H]2C[C@H](COS(N)(=O)=O)[C@@H](O)C2)n1 [Compound I-305, {(1R,2S,4R)-2-hydroxy-4-[(5-{[1-(2-methoxyethyl)-1H-pyrazol-3-yl]carbonyl}pyrimidin-4-yl)amino]cyclopentyl}methyl sulfamate] | 0.1 to 1 µM | 32%
Cn1nc(Cn2ccc(C(=O)c3cncnc3N[C@@H]3C[C@H](COS(N)(=O)=O)[C@@H](O)C3)c2)cc1C(F)(F)F [Compound I-306, [(1R,2S,4R)-2-hydroxy-4-({5-[(1-{[1-methyl-5-(trifluoromethyl)-1H-pyrazol-3-yl]methyl) 1H pyrrol-3-yl)carbonyl]pyrmidin-4-yl}amino)cyclopentyl]methyl sulfamate] | < 0.01 µM | 99%
NS(=O)(=O)OC[C@H]1C[C@@H](Nc2ncncc2C(=O)c2ccn(Cc3cc(Cl)ccc3Cl)n2)[C@@H](F)[C@@H]1O [Compound I-307, {(1R,2R,3R,4R)-4-[(5-{[1-(2,5-dichlorobenzyl)-1H-pyrazol-3-yl]carbonyl}pyrimidin-4-yl)amino]-3-fluoro-2-hydroxycyclopentyl}methyl sulfamate] | < 0.01 µM | 98%
Cn1cc(C#CCn2ccc(C(=O)c3cncnc3N[C@@H]3C[C@H](COS(N)(=O)=O)[C@@H](O)C3)n2)cn1 [Compound I-308, [(1R,2S,4R)-2-hydroxy-4-{[5-({1-[3-(1-methyl-1H-pyrazol-4-yl)prop-2-yn-1-yl]-1H-pyrazol-3-yl}carbonyl)pyrimidin-4-yl]amino}cyclopentyl]methyl sulfamate] | 0.1 to 1 µM | 27%
Cc1cc(C(=O)c2cncnc2N[C@@H]2C[C@H](COS(N)(=O)=O)[C@@H](O)C2)nn1Cc1cccc(Br)c1 [Compound I-309, {(1R,2S,4R)-4-[(5-{[1-(3-Bromobenzyl)-5-methyl-1H-pyrazol-3-yl]carbonyl}pyrimidin-4-yl)amino]-2-hydroxycyclopentyl}methyl sulfamate] | < 0.01 µM | 100%
NS(=O)(=O)OC[C@H]1C[C@@H](Nc2ncncc2C(=O)c2cc(Cl)n(Cc3cccc(I)c3)c2)[C@@H](F)[C@@H]1O [Compound I-310, {(1R,2R,3R,4R)-4-[(5-{[5-chloro-1-(3-iodobenzyl)-1H-pyrrol-3-yl]carbonyl}pyrimidin-4-yl)amino]-3-fluoro-2-hydroxycyclopentyl}methyl sulfamate] | < 0.01 µM | 98%
NS(=O)(=O)OC[C@H]1C[C@@H](Nc2ncncc2C(=O)c2ccn(Cc3ccc(Cl)c(Cl)c3)n2)[C@@H](F)[C@@H]1O [Compound I-311, {(1R,2R,3R,4R)-4-[(5-{[1-(3,4-dichlorobenzyl)-1H-pyrazol-3-yl]carbonyl}pyrimidin-4-yl)amino]-3-fluoro-2-hydroxycyclopentyl}methyl sulfamate] | < 0.01 µM | 98%
NS(=O)(=O)OC[C@H]1C[C@@H](Nc2ncncc2C(=O)c2ccn(Cc3cccc(Br)c3)c2)[C@@H](F)[C@@H]1O [Compound I-312, {(1R,2R,3R,4R)-4-[(5-{[1-(3-bromobenzyl)-1H-pyrrol-3-yl]carbonyl}pyrimidin-4-yl)amino]-3-fluoro-2-hydroxycyclopentyl}methyl sulfamate] | < 0.01 µM | 99%
C=CC(=O)Nc1cccc(Cn2ccc(C(=O)c3cncnc3N[C@@H]3C[C@H](COS(N)(=O)=O)[C@@H](O)[C@H]3O)n2)c1 [Compound I-313, [(1R,2R,3S,4R)-4-{[5-({1-[3-(Acryloylamino)benzyl]-1H-pyrazol-3-yl}carbonyl)pyrimidin-4-yl]amino}-2,3-dihydroxycyclopentyl]methyl sulfamate] | < 0.01 µM | 95%
NS(=O)(=O)OC[C@H]1C[C@@H](Nc2ncncc2C(=O)c2ccn(Cc3cc(F)c(F)cc3F)n2)[C@H](O)[C@@H]1O [Compound I-314, {(1R,2R,3S,4R)-2,3-dihydroxy-4-[(5-{[1-(2,4,5-trifluorobenzyl)-1H-pyrazol-3-yl]carbonyl}pyrimidin-4-yl)amino]cyclopentyl}methyl sulfamate] | < 0.01 µM | 97%
NS(=O)(=O)OC[C@H]1C[C@@H](Nc2ncncc2C(=O)c2cc(C(F)(F)F)n(Cc3cccc(Cl)c3)n2)[C@@H](F)[C@@H]1O [Compound I-316, {(1R,2R,3R,4R)-4-[(5-{[1-(3-Chlorobenzyl)-5-(trifluoromethyl)-1H-pyrazol-3-yl]carbonyl}pyrimidin-4-yl)amino]-3-fluoro-2-hydroxycyclopentyl}methyl sulfamate] | < 0.01 µM | 94%
NS(=O)(=O)OC[C@H]1C[C@@H](Nc2ncncc2C(=O)c2ccn(Cc3ccccc3)n2)[C@@H](F)[C@@H]1O [Compound I-317, [(1R,2R,3R,4R)-4-({5-[(1-Benzyl-1H-pyrazol-3-yl)carbonyl]pyrimidin-4-yl}amino)-3-fluoro-2-hydroxycyclopentyl]methyl sulfamate] | < 0.01 µM | 96%
NS(=O)(=O)OC[C@H]1C[C@@H](Nc2ncncc2C(=O)c2ccn(Cc3c(F)c(F)c(F)c(F)c3F)n2)[C@H](O)[C@@H]1O [Compound I-318, {(1R,2R,3S,4R)-2,3-dihydroxy-4-[(5-{[1-(pentafluorobenzyl)-1H-pyrazol-3-yl]carbonyl}pyrimidin-4-yl)amino]cyclopentyl}methyl sulfamate] | < 0.01 µM | 95%
